≈ marks a conversion by molar mass, not a printed value.
What was measured:
[1] = molecular target: T1, Dual specificity protein kinase TTK (Homo sapiens, UniProt P33981); test: Inhibition of MPS1 assessed as [33P]-gamma-ATP incorporation into substrate P38-betatide by gamma counting
T1 sequence (P33981 whole entry): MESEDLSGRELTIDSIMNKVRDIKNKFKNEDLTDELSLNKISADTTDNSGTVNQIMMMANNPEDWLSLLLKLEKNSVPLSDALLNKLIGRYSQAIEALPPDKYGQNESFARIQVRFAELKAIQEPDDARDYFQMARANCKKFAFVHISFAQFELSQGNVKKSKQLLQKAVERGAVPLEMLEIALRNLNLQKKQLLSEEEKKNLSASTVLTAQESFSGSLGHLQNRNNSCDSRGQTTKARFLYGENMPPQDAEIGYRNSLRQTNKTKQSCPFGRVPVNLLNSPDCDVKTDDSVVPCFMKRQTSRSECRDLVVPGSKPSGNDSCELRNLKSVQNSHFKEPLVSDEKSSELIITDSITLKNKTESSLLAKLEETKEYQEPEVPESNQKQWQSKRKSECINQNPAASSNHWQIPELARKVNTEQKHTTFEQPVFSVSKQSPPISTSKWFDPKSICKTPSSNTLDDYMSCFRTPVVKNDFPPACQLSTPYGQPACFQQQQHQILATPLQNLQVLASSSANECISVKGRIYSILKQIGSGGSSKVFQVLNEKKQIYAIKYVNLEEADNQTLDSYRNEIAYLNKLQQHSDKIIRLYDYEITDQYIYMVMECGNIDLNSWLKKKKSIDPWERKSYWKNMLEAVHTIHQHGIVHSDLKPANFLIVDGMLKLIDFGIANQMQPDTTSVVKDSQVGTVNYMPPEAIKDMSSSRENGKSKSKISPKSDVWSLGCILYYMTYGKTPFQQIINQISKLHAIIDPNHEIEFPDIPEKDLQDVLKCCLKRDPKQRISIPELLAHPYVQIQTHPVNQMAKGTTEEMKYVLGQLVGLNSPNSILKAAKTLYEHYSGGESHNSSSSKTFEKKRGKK

A2780 = test: Antiproliferative activity in human A2780 cells after 72 hrs by CellTiter-Glo assay; format: functional, cell-based; settings: A2780, 72 h
[2] = molecular target: Cyclin-dependent kinase 2/cyclin A (Homo sapiens, UniProt P24941); test: Inhibition of CDK2/Cyclin A assessed as [33P]-gamma-ATP incorporation into substrate by gamma counting; format: protein-complex assay
U2OS = test: Inhibition of mitosis in human U2OS cells assessed as histone H3 phosphorylation at Ser 10 residue after 2 hrs by immunoassay; format: functional, cell-based
Aurora kinase A = molecular target: T2, Aurora kinase A (Homo sapiens, UniProt O14965); test: Inhibition of Aur-A assessed as [33P]-gamma-ATP incorporation into substrate by gamma counting
T2 sequence (O14965 whole entry): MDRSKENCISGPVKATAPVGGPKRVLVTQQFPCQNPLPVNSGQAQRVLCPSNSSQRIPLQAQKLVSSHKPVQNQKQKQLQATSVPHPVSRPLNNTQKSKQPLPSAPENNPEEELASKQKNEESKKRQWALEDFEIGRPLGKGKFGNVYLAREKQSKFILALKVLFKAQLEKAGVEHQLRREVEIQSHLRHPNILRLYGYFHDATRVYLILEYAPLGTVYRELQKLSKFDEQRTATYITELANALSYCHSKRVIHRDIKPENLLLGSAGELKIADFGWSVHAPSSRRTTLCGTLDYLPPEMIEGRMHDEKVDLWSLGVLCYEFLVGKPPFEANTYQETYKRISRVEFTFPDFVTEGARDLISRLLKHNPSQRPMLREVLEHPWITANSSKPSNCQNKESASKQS

[3] = molecular target: Serine/threonine-protein kinase PLK1 (Homo sapiens, UniProt P53350); test: Inhibition of PLK1 assessed as [33P]-gamma-ATP incorporation into substrate by gamma counting
Serine/threonine-protein kinase PLK1, sequence (P53350 whole entry): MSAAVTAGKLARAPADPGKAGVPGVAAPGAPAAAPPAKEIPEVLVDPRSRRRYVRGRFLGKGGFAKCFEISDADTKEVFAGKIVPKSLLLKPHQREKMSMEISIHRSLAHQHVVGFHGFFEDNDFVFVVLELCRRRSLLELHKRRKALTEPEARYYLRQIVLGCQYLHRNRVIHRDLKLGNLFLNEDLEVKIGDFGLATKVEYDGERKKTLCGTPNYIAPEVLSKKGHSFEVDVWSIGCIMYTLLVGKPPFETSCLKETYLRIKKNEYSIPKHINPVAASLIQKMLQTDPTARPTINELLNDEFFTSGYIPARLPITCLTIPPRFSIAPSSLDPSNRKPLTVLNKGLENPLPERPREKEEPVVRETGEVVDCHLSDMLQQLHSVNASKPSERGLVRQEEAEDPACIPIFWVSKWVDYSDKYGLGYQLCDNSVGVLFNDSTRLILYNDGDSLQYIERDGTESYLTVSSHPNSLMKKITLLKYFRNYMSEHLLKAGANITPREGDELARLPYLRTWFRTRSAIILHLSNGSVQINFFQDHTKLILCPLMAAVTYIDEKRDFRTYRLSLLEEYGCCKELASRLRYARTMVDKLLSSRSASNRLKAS

[4] = Solubility of the compound at pH 7; format: physicochemical; settings: buffer
Mus musculus [5] = test: Antitumor activity against human A2780 cells xenografted in mouse assessed as tumor growth inhibition at 90 mg/kg, po for seven consecutive days; format: functional; settings: read-out: GI
Mus musculus [6] = test: Toxicity in mouse assessed as body weight loss at 90 mg/kg, po for seven consecutive days; format: organism-based; design: dose 90 mg/kg, route oral; settings: in vivo
[7] = Clearance in mouse at 10 mg/kg, iv; format: ADME, organism-based; design: dose 10 mg/kg, route intravenous; settings: in vivo
[8] = AUC in mouse at 10 mg/kg, iv; format: ADME, organism-based; design: dose 10 mg/kg, route intravenous; settings: plasma
[9] = Cmax in mouse at 10 mg/kg, po; format: ADME, organism-based; design: dose 10 mg/kg, route oral; settings: in vivo
[10] = Half life in mouse at 10 mg/kg, iv; format: ADME, organism-based; design: dose 10 mg/kg, route intravenous; settings: in vivo
[11] = Volume of distribution at steady state in mouse at 10 mg/kg, iv; format: ADME, organism-based; design: dose 10 mg/kg, route intravenous; settings: in vivo, read-out: Vdss
[12] = Half life in mouse at 10 mg/kg, po; format: ADME, organism-based; design: dose 10 mg/kg, route oral; settings: in vivo
[13] = AUC in mouse at 10 mg/kg, po; format: ADME, organism-based; design: dose 10 mg/kg, route oral; settings: plasma
[14] = Oral bioavailability in mouse at 10 mg/kg; format: ADME, organism-based; settings: in vivo

SMILES | IC50 [1] | IC50 (A2780) | IC50 [2] | IC50 (U2OS) | IC50 (Aurora kinase A) | IC50 [3] | solubility [4] | further results
COc1ccccc1Nc1ncc2c(n1)-c1c(c(C(N)=O)nn1C)CC2 | 66 nM | – | – | – | – | – | – | –
CCc1cccc(CC)c1NC(=O)c1nn(C)c2c1CCc1cnc(Nc3ccc(C(=O)NCCN(C)C)cc3OC(F)(F)F)nc1-2 | 130 nM | 771 nM | > 10000 nM | 110 nM | 1380 nM | > 10000 nM | 27 µM (≈ 17.6 µg/mL) | –
CCc1cccc(CC)c1NC(=O)c1nn(C)c2c1CCc1cnc(Nc3ccc(C(=O)N4CCC(N(C)C)CC4)cc3OC)nc1-2 | 19 nM | 83 nM | > 10000 nM | 2 nM | 484 nM | > 10000 nM | 116 µM (≈ 73.9 µg/mL) | –
CCc1cccc(CC)c1NC(=O)c1nn(C)c2c1CCc1cnc(Nc3ccc(C(=O)N4CCC[C@H]4CN4CCCC4)cc3OC)nc1-2 | 72 nM | 73 nM | > 10000 nM | 13 nM | 491 nM | > 10000 nM | 96 µM (≈ 63.6 µg/mL) | –
Cn1nc(C(=O)NCc2ccccc2)c2c1-c1nc(Nc3ccccc3)ncc1CC2 | > 11000 nM | – | – | – | – | > 10000 nM | – | –
CCc1cccc(CC)c1NC(=O)c1nn(C)c2c1CCc1cnc(Nc3ccc(C(=O)N4CCC(N(C)C)CC4)cc3OC(F)(F)F)nc1-2 | 206 nM | 485 nM | > 10000 nM | 40 nM | > 10000 nM | > 10000 nM | 70 µM (≈ 48.4 µg/mL) | –
Cn1nc(C(N)=O)c2c1-c1nc(Nc3ccccc3OC(F)(F)F)ncc1CC2 | 1220 nM | – | > 10000 nM | – | > 10000 nM | – | – | –
CCc1cccc(CC)c1NC(=O)c1nn(C)c2c1CCc1cnc(Nc3ccc(C(=O)N4CCC[C@@H]4CN4CCCC4)cc3OC(F)(F)F)nc1-2 | 391 nM | 422 nM | > 10000 nM | 210 nM | > 10000 nM | > 10000 nM | 65 µM (≈ 46.6 µg/mL) | –
CCc1cccc(CC)c1NC(=O)c1nn(C)c2c1CCc1cnc(Nc3ccc(C(=O)N4CCC[C@@H]4CN4CCCC4)cc3OC)nc1-2 | 103 nM | 83 nM | > 10000 nM | 11 nM | 1380 nM | > 10000 nM | 110 µM (≈ 72.9 µg/mL) | –
CCc1cccc(CC)c1NC(=O)c1nn(C)c2c1CCc1cnc(Nc3ccc(C(=O)NC4CCN(C)CC4)cc3OC)nc1-2 | 84 nM | 150 nM | > 10000 nM | 16 nM | 1450 nM | 237 nM | 3 µM (≈ 1.87 µg/mL) | –
CCc1cccc(CC)c1NC(=O)c1nn(C)c2c1CCc1cnc(Nc3ccccc3OC(F)(F)F)nc1-2 | 823 nM | 2860 nM | > 10000 nM | – | > 10000 nM | > 10000 nM | < 1 µM | –
CCc1cccc(CC)c1NC(=O)c1nn(C)c2c1CCc1cnc(Nc3ccc(C(=O)N4CCCN(C)CC4)cc3OC)nc1-2 | 21 nM | < 16 nM | 3620 nM | 2 nM | 372 nM | > 10000 nM | 59 µM (≈ 36.7 µg/mL) | –
CCc1cccc(CC)c1NC(=O)c1nn(C)c2c1CCc1cnc(Nc3ccccc3)nc1-2 | 530 nM | – | > 10000 nM | – | 152 nM | > 10000 nM | – | –

More lines, main results first:

IC50 [1] | IC50 (A2780) | IC50 [2] | IC50 (U2OS) | IC50 (Aurora kinase A) | IC50 [3] | solubility [4] | SMILES | further results
202 nM | 407 nM | > 10000 nM | 260 nM | > 10000 nM | > 10000 nM | 69 µM (≈ 49.5 µg/mL) | CCc1cccc(CC)c1NC(=O)c1nn(C)c2c1CCc1cnc(Nc3ccc(C(=O)N4CCC[C@H]4CN4CCCC4)cc3OC(F)(F)F)nc1-2 | –
36 nM | 135 nM | 5570 nM | 4 nM | 768 nM | 3030 nM | < 1 µM | CCc1cccc(CC)c1NC(=O)c1nn(C)c2c1CCc1cnc(Nc3ccc(C(N)=O)cc3OC)nc1-2 | –
– | 1000 nM | – | 32 nM | – | > 10000 nM | 45 µM (≈ 30.5 µg/mL) | CCc1cccc(CC)c1NC(=O)c1nn(C)c2c1CCc1cnc(Nc3ccc(C(=O)NC4CCN(C)CC4)cc3OC(F)(F)F)nc1-2 | inhibition in vivo at 90 mg/kg (Mus musculus [5]): 53%; Activity (Mus musculus [6]): Non-toxic
33 nM | 101 nM | > 10000 nM | 12 nM | 750 nM | 1650 nM | 44 µM (≈ 26.3 µg/mL) | CCc1cccc(CC)c1NC(=O)c1nn(C)c2c1CCc1cnc(Nc3ccc(C(=O)NCCN(C)C)cc3OC)nc1-2 | –
241 nM | – | – | – | – | – | – | Cc1ccccc1Nc1ncc2c(n1)-c1c(c(C(N)=O)nn1C)CC2 | –
> 12000 nM | – | 697 nM | – | 677 nM | > 10000 nM | – | Cn1nc(C(=O)NCCc2ccccc2)c2c1-c1nc(Nc3ccccc3)ncc1CC2 | –
525 nM | 541 nM | > 10000 nM | – | 3170 nM | > 10000 nM | < 1 µM | CCc1cccc(CC)c1NC(=O)c1nn(C)c2c1CCc1cnc(Nc3ccccc3OC)nc1-2 | –
140 nM | 298 nM | > 10000 nM | 160 nM | > 10000 nM | > 10000 nM | 1 µM (≈ 0.58 µg/mL) | CCc1cccc(CC)c1NC(=O)c1nn(C)c2c1CCc1cnc(Nc3ccc(C(N)=O)cc3OC(F)(F)F)nc1-2 | –
146 nM | 244 nM | > 10000 nM | 32 nM | > 10000 nM | > 10000 nM | 46 µM (≈ 31.1 µg/mL) | CCc1cccc(CC)c1NC(=O)c1nn(C)c2c1CCc1cnc(Nc3ccc(C(=O)N4CCCN(C)CC4)cc3OC(F)(F)F)nc1-2 | clearance [7]: 77.5 mL/min/kg; AUC [8]: 2.9 µM·h; Cmax [9]: 245 nM; half-life [10]: 1.61 h; Vd [11]: 8.41 L/kg; half-life [12]: 2.92 h; AUC [13]: 0.64 µM·h; bioavailability [14]: 22.4%
2170 nM | – | – | – | – | – | – | CNC(=O)c1nn(C)c2c1CCc1cnc(Nc3ccccc3)nc1-2 | –
